Experiments:
[1] = Deoxyribose degradation as a measure of hydroxyl radical formation; format: biochemical; conditions: 75 μM test compound; controls < 0.1
HaCaT cells = assay: Antiproliferative activity against HaCaT cells (human keratinocyte cell line); format: cell-based; conditions: 48 h, read-out: AA IC50 (antiproliferative activity)

COC(=O)CCCCc1ccc2c(c1O)C(=O)c1c(O)cccc1C2 [IVB, Methyl 5-(9,10-Dihydro-1,8-dihydroxy-9-oxo-2-anthracene)pentanoate]
DD (deoxyribose degradation, malondialdehyde released) [1]: 0.62 ± 0.03 μmol of MDA/mmol
IC50 (HaCaT cells): 1.8 µM

CC(C(=O)N(C)O)c1ccc2c(c1O)C(=O)c1c(O)cccc1C2 (stereo not drawn) [VIID, N-Hydroxy-N-methyl-2-(9,10-dihydro-1,8-dihydroxy-9-oxo-2-anthracene)propionamide]
DD (deoxyribose degradation, malondialdehyde released) [1]: 1.57 ± 0.16 μmol of MDA/mmol
IC50 (HaCaT cells): 1.5 µM

COC(=O)C(c1ccc2c(c1O)C(=O)c1c(O)cccc1C2)C(C)C (stereo not drawn) [VIIIB, Methyl 2-(9,10-Dihydro-1,8-dihydroxy-9-oxo-2-anthracene)-3-methylbutanoate]
DD (deoxyribose degradation, malondialdehyde released) [1]: 0.54 ± 0.01 μmol of MDA/mmol

COC(=O)CCCCCc1ccc2c(c1O)C(=O)c1c(O)cccc1C2 [VB, Methyl 6-(9,10-Dihydro-1,8-dihydroxy-9-oxo-2-anthracene) hexaonate]
DD (deoxyribose degradation, malondialdehyde released) [1]: 0.13 ± 0.02 μmol of MDA/mmol

From US5922891A, “2-substituted 1,8-dihydroxy-9(10H)-anthracenone pharmaceuticals” (priority 1997, dated 1999)
